Results taken from patent US20150284360A1, “AMIDE DERIVATIVES OF ANILINE-RELATED COMPOUNDS AND COMPOSITIONS THEREOF” (C&C BIOPHARMA, LLC, priority 2014, published 2015).
≈ marks a conversion by molar mass, not a printed value.

What was measured:
[1] = Solubility of a compound in water; assay type: physicochemical; conditions: compound added until saturated
Protocol: Solubility of a compound was obtained by adding the compound into water of known volume (e.g. 1 mL) until saturated, measuring the amount of the compound added, and obtaining the solubility of the compound in water (mg/mL) (Table 9).

[2] = In vivo conversion of prodrug Lys-CC30.2HCl to parent drug CC30 in a rat after intravenous administration (plasma, HPLC-MS); parameters: species or system Sprague-Dawley rat; conditions: for HPLC-MS Peak Area of Parent drug, CC30 in the rat: rat plasma after Lys-CC30.2HCl 2 mg/kg intravenous
Protocol: A Male Sprague-Dawley rat weighing 200-220 g was used to study the pharmacokinetics of the prodrug Lys-CC30.2HCl. Food was prohibited for 12 hours before the experiment, but water was freely available. Blood samples (0.2 ml) were collected through orbital venous plexus blood into heparinized 1.5 ml polyethene tubes at 0, 2, 5, 10, 15, 20, 30, 45 and 60 minute time points after the intravenous administration of Lys-CC30.2HCl (2 mg/kg). The samples were immediately centrifuged at 3000 g for 10 minutes. The plasma obtained (100 μl) was stored at −20° C. until analyzed. Plasma Lys-CC30.2HCl and parent drug CC30 concentrations in the collected blood samples were analyzed by HPLC-MS.
The parent drug was detected in the rat for at least 60 minutes, whereas the prodrug was no longer detected after 20 minutes (Table 11)(FIG. 10B).

[3] = Cyclization in simulated gastric fluid (SGF), acidic condition; assay type: physicochemical; conditions: SGF pH=1.3 with pepsin, 37° C., 4 hours
Protocol: Simulated gastric fluid (SGF) was prepared by thoroughly mixing diluted hydrochloric acid (16.4 ml), water (800 ml), and 10 g of pepsin together, and then bring the volume up to 1000 ml with water (pH=1.3). Diluted hydrochloric acid was prepared by mixing 234 ml of concentrated hydrochloric acid with water to a final volume of 1000 ml. Lys-CC30.2HCl (2.53 mg) or CC30 were separately dissolved in 200 μl of water to obtain an aqueous solution concentration of 12.6 mg/ml. 4 μl of the Lys-CC30.2HCl solution and the CC30 solution were thoroughly mixed with 1 ml of SGF in separate tubes. The mixtures were placed in an incubator at 37° C. for 4 hours. The samples were diluted with water 50-fold, mixed, and pelleted by centrifugation at 4° C. and 14,000 rpm for 5 min. The supernatants (˜200-300 μl) were used for HPLC-MS analysis.

[4] = In vitro conversion of prodrug Lys-CC30.2HCl to parent drug CC30 in rat plasma (HPLC-MS); assay type: in vitro ADME; conditions: formed from Lys-CC30•2HCl in rat plasma
Protocol: Lys-CC30.2HCl (2.53 mg) was dissolved in 200 μl of water to obtain an aqueous solution concentration of 12.6 mg/ml. 4 μl of the Lys-CC30.2HCl solution was thoroughly mixed with 100 μl of rat plasma. This mixture was divided into 10 aliquots (10 μl) placed in 1.5 ml tubes. One tube was placed on ice and was used as the 0 time point. The other 9 samples were placed in an incubator at 37° C. At 5, 10, 30, 60, 120, and 240 minutes, a tube was taken out from incubation and placed on ice to stop or slow down the reaction. The samples were diluted with water (50-fold), mixed, and pelleted by centrifugation at 4° C. and 14,000 rpm for 5 min. The supernatant (˜200-300 μl) was used for HPLC-MS analysis. The % conversion was calculated by dividing the peak area of the parent drug by the peak area of the prodrug at time 0, and then multiplying by 100 (Table 10).
After 60 minutes of incubation, almost half (44.7%) of the Lys-CC30.2HCl prodrug converted to CC30 (Table 10).

Row | SMILES | Solubility in Water [1] | further results
1 | Cl.Cl.N[C@@H](Cc1c[nH]cn1)C(=O)Nc1ccccc1NC(=O)CCCCCC(=O)Nc1cccc(Br)c1 [His-CC30•2HCl] | 130 mg/mL | –
2 | N[C@@H](CCC(=O)[O-])C(=O)Nc1ccccc1NC(=O)CCCCCC(=O)Nc1cccc(Br)c1.[Na+] [CC30-Glu•Na] | >100 mg/mL | –
3 | CC(C)[C@H](N)C(=O)Nc1ccccc1NC(=O)c1ccc(CNC(=O)OCc2cccnc2)cc1.Cl [Val-MS-275•HCl] | >100 mg/mL | –
4 | Cl.NC(CO)C(=O)Nc1ccccc1NC(=O)c1ccc(CNc2nccc(-c3cccnc3)n2)cc1 (centres unmarked) [Ser-MGCD0103•HCl] | >100 mg/mL | –
5 | CC(O)C(N)C(=O)Nc1ccccc1NC(=O)c1ccc(CNC(=O)OCc2cccnc2)cc1.Cl (centres unmarked) [Thr-MS-275•HCl] | >100 mg/mL | –
6 | Nc1ccccc1NC(=O)c1ccc(CNC(=O)OCc2cccnc2)cc1 [MS-275, Entinostat, reference compound] | 0.016 mg/mL (≈ 42.5 µM) | –
7 | Cl.N[C@@H](CO)C(=O)Nc1ccccc1NC(=O)CCCCCC(=O)Nc1cccc(Br)c1 [Ser-CC30•HCl] | 10 mg/mL | –
8 | Cl.Cl.NCCC[C@H](N)C(=O)Nc1ccccc1NC(=O)CCCCCC(=O)Nc1cccc(Br)c1 [Orn-CC30•HCl] | 720 mg/mL | –
9 | Nc1ccccc1NC(=O)CCCCCC(=O)Nc1cccc(Br)c1 [CC30] | 0.006 mg/mL (≈ 14.8 µM) | Time for which the parent drug was detected in the rat ([2]; after Lys-CC30.2HCl 2 mg/kg intravenous): at least 60 minutes; HPLC-MS Peak Area of Parent drug, CC30 in the rat ([2]; 0 min): 4792335; HPLC-MS Peak Area of Parent drug, CC30 in the rat ([2]; 2 min): 2994581; HPLC-MS Peak Area of Parent drug, CC30 in the rat ([2]; 5 min): 2162228; HPLC-MS Peak Area of Parent drug, CC30 in the rat ([2]; 10 min): 1225981; HPLC-MS Peak Area of Parent drug, CC30 in the rat ([2]; 15 min): 712348; HPLC-MS Peak Area of Parent drug, CC30 in the rat ([2]; 20 min): 425079; HPLC-MS Peak Area of Parent drug, CC30 in the rat ([2]; 30 min): 232663; HPLC-MS Peak Area of Parent drug, CC30 in the rat ([2]; 45 min): 199152; HPLC-MS Peak Area of Parent drug, CC30 in the rat ([2]; 60 min): 44686; Fraction that formed an inactive cyclized product [3]: 5%; HPLC-MS Peak Area of Parent Drug, CC30 ([4]; 37° C., 5 min): 880074; HPLC-MS Peak Area of Parent Drug, CC30 ([4]; 37° C., 10 min): 1131442; HPLC-MS Peak Area of Parent Drug, CC30 ([4]; 37° C., 30 min): 2039869; HPLC-MS Peak Area of Parent Drug, CC30 ([4]; 37° C., 60 min): 2762843; HPLC-MS Peak Area of Parent Drug, CC30 ([4]; 37° C., 120 min): 4280514; HPLC-MS Peak Area of Parent Drug, CC30 ([4]; 37° C., 240 min): 4438887; HPLC-MS Peak Area of Parent Drug, CC30 ([4]; time 0 min (on ice)): 617276
10 | O=C([O-])CCC(=O)Nc1ccccc1NC(=O)CCCCCC(=O)Nc1cccc(Br)c1.[Na+] [CC30-Suc-ONa] | 2 mg/mL | –
11 | Cl.N[C@@H](Cc1ccccc1)C(=O)Nc1ccccc1NC(=O)CCCCCC(=O)Nc1cccc(Br)c1 [Phe-CC30•HCl] | 10 mg/mL | –
12 | Cl.Cl.N=C(N)NCCC[C@H](N)C(=O)Nc1ccccc1NC(=O)CCCCCC(=O)Nc1cccc(Br)c1 [Arg-CC30•HCl] | 100 mg/mL | –
13 | Cl.Cl.NCCCC[C@H](N)C(=O)Nc1ccccc1NC(=O)CCCCCC(=O)Nc1ccccc1 [Lys-PAOA•2HCl] | >100 mg/mL | –
14 | Cl.NC(CO)C(=O)Nc1ccccc1NC(=O)c1ccc(CNC(=O)OCc2cccnc2)cc1 (centres unmarked) [Ser-MS-275•HCl] | >100 mg/mL | –
15 | CC(C)C(N)C(=O)Nc1ccccc1NC(=O)c1ccc(CNc2nccc(-c3cccnc3)n2)cc1.Cl (centres unmarked) [Val-MGCD0103•HCl] | >100 mg/mL | –
16 | CC(C)[C@H](N)C(=O)Nc1ccccc1NC(=O)CCCCCC(=O)Nc1ccccc1.Cl [Val-PAOA•HCl] | >100 mg/mL | –
17 | Cl.NCC(=O)Nc1ccccc1NC(=O)CCCCCC(=O)Nc1cccc(Br)c1 [Gly-CC30•HCl] | 10 mg/mL | –
18 | Cl.NCC(=O)Nc1ccccc1NC(=O)c1ccc(CNc2nccc(-c3cccnc3)n2)cc1 [Gly-MGCD0103•HCl] | >100 mg/mL | –
19 | Nc1ccccc1NC(=O)CCCCCC(=O)Nc1ccccc1 [PAOA, reference compound] | .033 mg/mL (≈ 101 µM) | –
20 | Cl.NCC(=O)Nc1ccccc1NC(=O)CCCCCC(=O)Nc1ccccc1 [Gly-PAOA•HCl] | 11 mg/mL | –
21 | CC(C)[C@H](N)C(=O)Nc1ccccc1NC(=O)CCCCCC(=O)Nc1cccc(Br)c1.Cl [Val-CC30•HCl] | 170 mg/mL | –
22 | Nc1ccccc1NC(=O)c1ccc(CNc2nccc(-c3cccnc3)n2)cc1 [MGCD0103, Mocetinostat, reference compound] | <1 mg/mL | –
23 | Cl.NC(=O)C[C@H](N)C(=O)Nc1ccccc1NC(=O)CCCCCC(=O)Nc1cccc(Br)c1 [Asn-CC30•HCl] | 30 mg/mL | –
24 | Cl.NCC(=O)Nc1ccccc1NC(=O)c1ccc(CNC(=O)OCc2cccnc2)cc1 [Gly-MS-275•HCl] | 68 mg/mL | –
25 | Cl.Cl.NCCCCC(N)C(=O)Nc1ccccc1NC(=O)c1ccc(CNc2nccc(-c3cccnc3)n2)cc1 (centres unmarked) [Lys-MGCD0103•2HCl] | >100 mg/mL | –
26 | CC(C)C[C@H](N)C(=O)Nc1ccccc1NC(=O)CCCCCC(=O)Nc1cccc(Br)c1.Cl [Leu-CC30•HCl] | 50 mg/mL | –
27 | C[C@@H](O)[C@H](N)C(=O)Nc1ccccc1NC(=O)CCCCCC(=O)Nc1cccc(Br)c1.Cl [Thr-CC30•HCl] | 1350 mg/mL | –
28 | Cl.Cl.NCCCC[C@H](N)C(=O)Nc1ccccc1NC(=O)c1ccc(CNC(=O)OCc2cccnc2)cc1 [Lys-MS-275•2HCl] | >100 mg/mL | –
29 | C[C@@H](O)[C@H](N)C(=O)Nc1ccccc1NC(=O)c1ccc(CNc2nccc(-c3cccnc3)n2)cc1.Cl [Thr-MGCD0103•HCl] | >100 mg/mL | –
